# Tests used:
# [1] = Teicoplanin plasma trough levels (TCtrough) from therapeutic drug monitoring during ECMO support; format: in vivo, human
# Excerpt: This single-center retrospective study included critically ill, adult (> 18 years old) patients hospitalized at the tertiary intensive care unit (ICU) of the University Hospital Zurich, Switzerland, an academic teaching hospital. The local ICU provides care for patients from all medical and surgical fields. All patients undergoing extracorporeal membrane oxygenation (ECMO) support and intravenous teicoplanin treatment were eligible for study inclusion from 1.1.2010 to 19.07.2023. Patients were included irrespective of the admitting diagnosis and independent of the ECMO configuration (veno-venous, veno-arterial or others with, e.g., multiple cannulation sites). Patients aged < 18 years were excluded. Other exclusion criteria were documented verbal or written refusal to participate in this study. Patients were also excluded if teicoplanin was not administered for any portion of the ECMO treatment period (e.g., if given only before or after the ECMO treatment period) or if no trough levels were obtained during ECMO support.
# Data were collected with the use of two in-hospital electronic medical records databases, the KISIM (Cistec AG, Zurich, Switzerland) and the Patient Data Management System (PDMS) MetaVision (iMDsoft, Dusseldorf, Germany). Collected data included baseline demographic data (including age, gender and body mass index), comorbidities (including cardiovascular conditions, pulmonary diseases, renal insufficiency) and immunosuppression (including patients with prior organ transplantation), ICU admitting diagnoses, and the indication for teicoplanin treatment (empiric vs. targeted). Moreover, ICU treatment modalities and scores (e.g., organ support and scores such as the Sequential Organ Failure Assessment Score SOFA and the Simplified Acute Physiology Score SAPS II) and patient outcomes (including ICU length of stay and survival) were gathered. Teicoplanin trough levels and dosages over time were obtained from the medical records (see below).
# In our hospital, intravenous teicoplanin is normally administered for empiric or targeted coverage of Gram-positive microorganisms. The standard loading dose is 400 mg infused at 0 h, 12 h and 24 h. Thereafter, 400 mg are administered every 24 h. Measurement of teicoplanin trough levels (TCtrough) is recommended prior to the fifth dose and this also applies to dose adjustments. In case of renal impairment, TCtrough levels are recommended to be measured prior to the second dose, in order to detect potential overdosing early. If the estimated glomerular filtration rate (eGFR) is subnormal, teicoplanin starting dosage is adjusted (eGFR 40–60 ml/min: 200 mg/24 h, eGFR < 40 ml/min: 100 mg/24 h).
# In case the patient is undergoing continuous renal replacement therapy, 200–400 mg teicoplanin every 24 h are recommended. In general, TCtrough of 10–30 mg/l are targeted. TCtrough < 10 mg/l are considered insufficient, whereas TCtrough > 30 mg/l are considered toxic. In case TCtrough are not within the target ranges, dose adaptations can be prescribed by the clinicians in charge. In case a measured TCtrough is toxic (i.e., > 30 mg/l), no more teicoplanin is administered, however TCtrough are measured on a daily basis. […] After increasing the dose, subsequent teicoplanin levels are again measured prior to the fifth dose or prior to the second dose in case of renal impairment, respectively. […]
# [2] = Adverse reactions to teicoplanin in critically ill patients on ECMO; format: in vivo, human; details: all 23 included patients on ECMO, i.v. teicoplanin
# Excerpt: The primary outcome of this study was the proportion of patients with insufficient or toxic TCtrough during ECMO support. Secondary outcomes included the observed TCtrough and teicoplanin dosages over time during ECMO support and dependent on the presence of continuous renal replacement therapy (CRRT), as well as the occurrence of side effects (such as hemotoxicity, hepatotoxicity or skin changes) leading to discontinuation of teicoplanin treatment.
# [3] = cited from earlier work
# Excerpt: Recently, more attention has been drawn to antimicrobial serum levels and dosing in patients receiving ECMO treatment. While marked concentration variability during ECMO treatment has been observed for many common antimicrobials used in the ICU including meropenem, cefepime, ceftriaxone, piperacillin or vancomycin [14], data for teicoplanin are scarce so far.
# [4] = human, in vivo; cited from earlier work
# Description: Chen et al. focused on the effect of applying high loading doses in 11 patients receiving veno-arterial ECMO treatment. In their study, four loading doses greater than 10 mg/kg were applied within the first 72 h. Before the application of the maintenance dose, the authors reported adequate therapeutic TCtrough for severe infections in more than 90% of patients. In our study, the loading dose of 400 mg was markedly lower, which presumably might have contributed to our observed low TCtrough in a significant proportion of patients particularly during the first days of ECMO su ...
substance,measurement,setting,value
Teicoplanin,"TCtrough mean difference, ECMO alone vs ECMO and CRRT","[1]; 95% CI 6–13, p < 0.0001",9 mg/L
same,Influence of ECMO circuit configuration (veno-venous vs. veno-arterial) on TCtrough over time,[1]; Fig. 3,did not have a significant influence
same,TCtrough in patients with ECMO and CRRT,"[1]; critically ill adult ICU patients, i.v. teicoplanin, plasma trough level, ECMO plus continuous renal replacement therapy, median [IQR 5–16]",9 mg/L
same,TCtrough in patients with ECMO treatment alone,"[1]; critically ill adult ICU patients, i.v. teicoplanin, plasma trough level, ECMO without CRRT, median [IQR 12–24 mg/l]",18 mg/L
same,TCtrough mean difference in relation to oxygenator changes (pre vs. post),"[1]; five cases with available data, 95% CI –12 to 15, p = 0.8108",1.5 mg/L
same,Drug reactions or other adverse reactions to teicoplanin,[2],no drug reactions or other adverse reactions to teicoplanin were observed
same,Loss of teicoplanin within the ECMO circuit,[3]; ex vivo blood-primed ECMO circuits,significant loss of teicoplanin
same,Lowering of central volume of distribution with ECMO treatment,"[3]; population pharmacokinetic model, 10 adult ECMO patients",34%
same,Proportion of patients with adequate therapeutic TCtrough for severe infections before the maintenance dose,[4],more than 90%

# Source: PMC11845331, “Teicoplanin pharmacokinetics in critically ill patients on extracorporeal organ support: a retrospective analysis” (Intensive Care Medicine Experimental, 2025)
